Source: article PMC9953468, “In Silico, In Vitro, and Ex Vivo Biological Activity of Some Novel Mebeverine Precursors” (Biomedicines, 2023)
Where “and” joins values, the source holds several entries; their conditions need not be identical. Identical values can stand only once. Entries after “also recorded” stand apart in the source; their conditions may differ. Counter-ions that a name gives are not always drawn. Like-named read-outs stand apart in the source and are kept apart here. Marks after values point to notes of the source that are not given here.

What was measured:
5-HT3 receptor = test: Immunohistochemical analysis of 5-HT3 expression in gastric SM strips; set-up: species or system Wistar rats; key to 5-HT3 expression, 5-HT / 5-HT3 expression, Response to Compound: −: absent; +: low; ++: moderate; +++: strong; conditions: for 5-HT3 expression, Response to Compound: SM preparations incubated with the compound; for 5-HT3 expression in SM preparations: immunohistochemical staining after 1 h incubation, in words
Experimental: […] Then, each SM strip was fixed in 10% neutral buffer formalin for 24–48 h and submitted for standard processing with hematoxylin and eosin staining.
The SM fragments from a rat’s gastric wall were fixed in a 10% neutral formalin solution and embedded in paraffin. Paraffin sections of 5 μm thickness were subjected to hematoxylin and eosin (H-E) staining for histochemical analysis.
Sections of the SM fragments from the wall of a rat’s stomach with a thickness of 5 µm were deparaffinized, then subjected to antigenic detection of the epitopes with citrate buffer, and an endogenous peroxidase blockade was made with hydrogen […] 3%, a kit was used to block the endogenous biotin, and a reagent was used to block non-specific binding (Superblock, Scy Tek, Santa Cruz Biotech. Inc. Heidelberg, Germany) follows incubate for 24 h (at 4 °C) with monoclonal mouse anti-5-HT3, next incubated with a secondary antibody: biotinylated anti-rabbit for 10 min at room temperature. The reaction was visualized with 3,3′-diaminobenzidine tetrachloride and counterstained with Mayer’s hematoxylin.
A quantitative and statistical analysis of immunohistochemical reaction using the Olympus DP-Soft image system (version 4.1 for Windows) was carried out on a Microphot-SA (Nikon, Japan) microscope equipped with a Camedia-5050 Z digital camera (Olympus, Japan). The analysis was performed on sections from the SM strips from the stomach of Wistar rats (n = 6 for each group). Five sections of the SM strips were measured, and the percentage of cells expressing 5-HT3 in the circular and longitudinal layer of SM cells, as well as in the myenteric plexus of the stomach, was determined. Each antibody was analyzed for five fields, in each of them the average number of cells with positive unit area response at ×200 magnification.

MTT cell viability assay [1] = type: cell-based, human; conditions: human, ± SD, read-out: In vitro cytotoxicity (IC50)
Experimental: (§1) In order to evaluate the in vitro biocompatibility of the experimental compounds, a series of cell viability assays were performed against human malignant leukemic cell lines (LAMA-84, K-562) as well as normal murine fibroblast cells (CCL-1). All cell lines were purchased from the German Collection of Microorganisms and Cell Cultures (DSMZ GmbH, Braunschweig, Germany). Cell cultures were cultivated in a growth medium RPMI 1640 supplemented with 10% fetal bovine serum (FBS), 5% L-glutamine, and incubated under standard conditions of 37 °C and 5% humidified CO2 atmosphere.
(§2) The experimental design involved a number of cytotoxicity assays that measured cell growth inhibition by the newly synthesized compounds. Cell viability was evaluated using a standard MTT-based colorimetric assay. Exponential-phased cells were harvested and seeded (100 μL/well) in 96-well plates at the appropriate density (3 × 10^5) for the suspension cultures (LAMA-84 and K-562) and 1.5 × 10^5 for the adherent one (CCL-1). Cells were treated and incubated with various concentrations of the experimental compounds in the concentration range of 400-6.25 µM. After exposure time of 72 h, a filter-sterilized MTT substrate solution (5 mg/mL in PBS) was added to each well of the culture plate. A further 1–4 h incubation allowed for the formation of purple insoluble formazan precipitates. The latter were dissolved in isopropyl alcohol solution containing 5% formic acid prior to absorbance measurement at 550 nm using a microplate reader (Labexim LMR-1). Collected absorbance values were blanked against MTT and isopropanol solution and normalized to the mean value of the untreated control (100% cell viability). Semi-logarithmic “dose–response” curves were constructed and the half-inhibitory concentrations of the screened compounds against each tested cell line were calculated. Values of p ≤ 0.05 were considered statistically significant.

[2] = system: SM preparations from the corpus gastric muscle; test: Ex vivo bioelectrical activity of smooth muscle preparations, single sucrose gap method; set-up: species or system Wistar rats; conditions: 5 × 10^−5 M; for Amplitude of slow waves, Measured value / Amplitude of spike potentials, Measured value / Number of slow waves, Measured value / Number of spike potentials, Measured value: 10 min, n = 7, mean ± SEM; for effect on bioelectrical activity (slow waves, spike potentials): in words; for Changes in the membrane potential: base activity taken as 100%, ↑ depolarization, ↓ hyperpolarization
Experimental: Adult male Wistar rats weighing 280–300 g were used. Animals were housed in standard laboratory conditions (23 to 25 °C, 50–55% humidity, 12/12 h light/dark cycle), while food and water were provided ad libitum.
Circular SM preparations were dissected from the corpus gastric muscle (26–28 mm long and 0.8–0.9 mm wide; without mucosa). Two or three muscle strips were taken from the rat stomach. The number of SM preparations used for each data point is indicated by n. After dissection, the tissues must prevent loss of viability, so during the dissection, the tissues were systematically moistened with a solution (NaCl:KCl:CaCl2 in ratio 27.2:1.1:1) prepared at 4 °C.
The BEA of SM preparations was investigated by means of the single sucrose gap method with silver non-polarizable freshly chlorinated electrodes. The muscle strips were divided into 3 zones: two electrode sections were flushed with isotonic KCl solution and Krebs solution (pH 7.3), respectively, and separated by a sucrose layer of high electric resistance. Krebs contained the following (in mM): NaCl 120; KCl 5.9; CaCl2 2.5; MgCl2 1.2; NaH2PO4 1.2; NaHCO3 15.4; glucose 11.5. All the ingredients for this solution were of analytical grade and obtained from Merck (Darmstadt, Germany). Deionized water (18.2 mX/cm^2) was used thoroughly. The KCl solution is similar to the Krebs solution but with an equimolar substitution of NaCl with KCl. An isotonic sucrose solution, due to its very high specific resistance (about 10^6 Ω·cm), provides the best possible separation of the sucrose solution from the physiological solution in the “normal” pool, on the one hand, and the solution providing a zero value of the membrane potential in the pool with another recording electrode.
The inflow rate of each solution (Krebs, KCl, and isotonic sucrose solution) was controlled by a needle valve and continuously aerated with a mixture of 95% O2 and 5% CO2, and the temperature was maintained at 37 °C. A potential difference between the two end sections of the gap (control conditions) was achieved by means of silver non-polarizable, freshly chlorinated electrodes and after a 40-min period of adaptation and stabilization was accepted as the initial (control). The Krebs solution was changed several times during the adaptation period. The viability of the SM preparations was periodically tested by treatment with 1 × 10^−6 M ACh.
The membrane potential value was visualized by means of a Linseis recorder (Selb, Germany). A pair of measuring electrodes is located on both sides of the sucrose sections. The pH (pH 7.3; 37 °C) of the Krebs bathing solution was measured before each experiment by pH-meter HI5521 (Hanna Instruments Inc., Woonsocket, RI, USA). […]
The new substances were dissolved initially in dimethyl sulphoxide (DMSO) to prepare a 5 × 10^−2 M stock solution. Further dilutions were made in distilled deionized water and were applied by adding aliquots of their concentrated solutions to the tissue bath.

MTT cell viability assay [3] = type: cell-based; conditions: mouse, CCL-1 normal fibroblast cells, CCL-1, normal murine fibroblast cells, read-out: In vitro cytotoxicity (IC50)
Experimental: as §1, §2

LAMA-84 = test: MTT cell viability assay; type: cell-based, human; conditions: LAMA-84, CML in blast crisis (bcr-abl+), 72 h, ± SD
Experimental: as §1, §2

K-562 = test: MTT cell viability assay; type: cell-based, human; conditions: K-562, Blast phase CML (bcr-abl+), 72 h, ± SD
Experimental: as §1, §2

[4] = system: Eighteen tested microorganisms (Gram-positive bacteria, Gram-negative bacteria, yeasts, fungi); test: Antimicrobial activity, agar well diffusion method, whole panel; type: cell-based; conditions: whole panel of tested microorganisms, in words
Source text: Eighteen tested microorganisms including five Gram-positive bacteria (Bacillus subtilis ATCC 6633, Bacillus amyloliquefaciens 4BCL-YT, Staphylococcus aureus ATCC 25923, Listeria monocytogenes NBIMCC 8632, Enterococcus faecalis ATCC 19433), five Gram-negative bacteria (Salmonella enteritidis ATCC 13076, Klebsiella sp.—clinical isolate, Escherichia coli ATCC 25922, Proteus vulgaris ATCC 6380, Pseudomonas aeruginosa ATCC 9027), two yeasts (Candida albicans NBIMCC 74, Saccharomyces cerevisiae ATCC 9763) and six fungi (Aspergillus niger ATCC 1015, Aspergillus flavus, Penicillium sp., Rhizopus sp., Mucor sp.—plant isolates, Fusarium moniliforme ATCC 38932) from the collection of the Department of Microbiology at the University of Food Technologies—Plovdiv, Bulgaria, were selected for the antimicrobial activity test.
The antimicrobial activity of the samples was determined by the agar well diffusion method. The tested bacteria B. subtilis and B. amyloliquefaciens were cultured on LBG agar at 30 °C. The test bacteria S. aureus, L. monocytogenes, E. faecalis, S. enteritidis, Klebsiella sp., E. coli, P. vulgaris and P. aeruginosa were cultured on LBG agar at 37 °C for 24 h. The yeast C. albicans was cultured on MEA at 37 °C, while S. cerevisiae was cultured on MEA at 30 °C for 24 h. The fungi A. niger, A. flavus, Penicillium sp., Rhizopus sp., Mucor sp., and F. moniliforme were grown on MEA at 30 °C for 7 days or until sporulation.
The inocula of the tested bacteria/yeasts were prepared by homogenization of a small amount of biomass in 5 mL of sterile 0.5% NaCl. […] The number of viable cells and fungal spores was determined using a bacterial counting chamber Thoma (Poly-Optik, GmbH, Bad Blankenburg, Germany). […] Next, the inoculated media were transferred in a quantity of 18 mL in sterile Petri plates (d = 90 mm) (Gosselin™, Hazebrouck, France) and allowed to harden. […]
The antimicrobial activity was determined by measuring the diameter of the inhibition zones around the wells on the 24th and 48th h of incubation. […]

[5] = K-562 cells (blast phase chronic myeloid leukemia), K-562, Blast phase CML (bcr-abl+)
[6] = LAMA-84, CML in blast crisis (bcr-abl+)

| 5-HT3 expression, Response to Compound (5-HT3 receptor) | 5-HT3 expression, 5-HT (5-HT3 receptor; SM preparations incubated with 5-HT, one per compound series) | SMILES | 5-HT3 expression in SM preparations (5-HT3 receptor) | IC50 at 72 h (MTT cell viability assay [1]; [5]) [µM] | IC50 at 72 h (MTT cell viability assay [1]; [6]) [µM] | Amplitude of slow waves, Measured value [2] [mV] | Amplitude of spike potentials, Measured value [2] | Number of slow waves, Measured value [2] [min⁻¹] | Number of spike potentials, Measured value [2] | effect on bioelectrical activity (slow waves, spike potentials) [2] | Changes in the membrane potential [2] [%] | IC50 at 72 h (MTT cell viability assay [3]) [µM] | In vitro cytotoxicity (IC50) (LAMA-84) | In vitro cytotoxicity (IC50) (K-562) | antimicrobial activity [4] |
| --- | --- | --- | --- | --- | --- | --- | --- | --- | --- | --- | --- | --- | --- | --- | --- |
| − |  | CC(C)C(Cc1ccccc1)NC(=O)c1ccccc1 (centres unmarked) [Compound 4b, N-(3-methyl-1-phenylbutan-2-yl)benzamide] | no modulation on the 5-HT3R expression; also recorded: no 5-HT3 expression observed | 329 ± 20.4 | 265 ± 20.2 | 5.09 ± 0.10 | 1.40 ± 0.12 mV | 4.50 ± 0.49 | 22.28 ± 0.18 min⁻¹ | do not affect the BEA | 0 | > 300 |  |  |  |
| − |  | CC(C)C(Cc1ccccc1)NC(=O)c1ccccc1Cl (centres unmarked) [Compound 4c, 2-Chloro-N-(3-methyl-1-phenylbutan-2-yl)benzamide] | no modulation on the 5-HT3R expression; also recorded: no 5-HT3 expression observed | 367 ± 8.4 | 266 ± 16.8 | 5.34 ± 0.20 | 1.56 ± 0.17 mV | 4.42 ± 0.41 | 26.16 ± 0.26 min⁻¹ | do not affect the BEA | 0 | > 300 |  |  |  |
| + |  | CC(C)C(Cc1ccccc1)NC(=O)Cc1ccccc1 (centres unmarked) [Compound 4d, N-(3-methyl-1-phenylbutan-2-yl)-2-phenylacetamide] | very weak non-specific effect; also recorded: weak 5-HT3 expression observed | 244 ± 18.5 | 328 ± 15.9 | 4.97 ± 0.29 | 0 * mV | 4.82 ± 0.24 | 0 * min^−1 |  | 0 | > 300 |  |  |  |
|  | ++ | NCCc1c[nH]c2ccc(O)cc12 [Compound 5-HT, 5-hydroxytryptamine, reference compound] | higher number of 5-HT3R positive cells per section and 5-HT3 expression observed in the myenteric plexus |  |  |  |  |  |  |  |  |  |  |  |  |
|  |  | CCN(CCCCOC(=O)c1ccc(OC)c(OC)c1)C(C)Cc1ccc(OC)cc1 (centres unmarked) [Mebeverine hydrochloride, mebeverine hydrochloride, reference compound] | weak 5-HT3 expression observed | 85.4 ± 8.3 | 72 ± 6.2 |  |  |  |  |  |  | > 300 | just under the hundred-micromolar range | just under the hundred-micromolar range | did not show any antimicrobial activity |
